Structures can show the parent of a compound that is named as a salt.
Tested on: SMN protein
Assay: SMN protein assay (HTRF) in cultured SMA patient fibroblast cells
Type: cell-based
Conditions: SMA Type 1 human fibroblasts GM03813, 48 hours; for EC1.5x SMN protein (EC1.5x concentration for SMN protein expression): 7-point concentration curve, concentration giving 1.5 times SMN protein vs vehicle; for max. fold increase (maximum fold increase of SMN protein): 7-point concentration data, fold vs vehicle control
Procedure: The SMN HTRF (homogeneous time resolved fluorescence) assay is used to quantify the level of SMN protein in SMA patient fibroblast cells treated with test compounds.
Cells are thawed and cultured in DMEM-10% FBS for 72 hours. Cells are trypsinized, counted and re-suspended to a concentration of 25,000 cells/mL in DMEM-10% FBS. The cell suspensions are plated at 5,000 cells per well in a 96 well microtiter plate and incubated for 3 to 5 hours. […] 1 μL of test compound solution is transferred to cell-containing wells and cells are incubated for 48 hours in a cell culture incubator (37° C., 5% CO2, 100% relative humidity). Triplicate samples are set up for each test compound concentration. After 48 hours, the supernatant is removed from the wells and 25 μL of the RIPA lysis buffer, containing protease inhibitors, is added to the wells and incubated with shaking at room temperature for 1 hour. 25 μL of the diluent is added and then 35 μL of the resulting lysate is transferred to a 384-well plate, where each well contains 5 μL of the antibody solution (1:100 dilution of anti-SMN d2 and anti-SMN kryptate in SMN reconstitution buffer). The plate is centrifuged for 1 minute to bring the solution to the bottom of the wells, then incubated overnight at room temperature. Fluorescence for each well of the plate at 665 nm and 620 nm is measured on an EnVision multilabel plate reader (Perkin-Elmer).
The normalized fluorescence signal is calculated for each sample, Blank and vehicle control well by dividing the signal at 665 nm by the signal at 620 nm. Normalizing the signal accounts for possible fluorescence quenching due to the matrix effect of the lysate. The ΔF value (a measurement of SMN protein abundance as a percent value) for each sample well is calculated by subtracting the normalized average fluorescence for the Blank control wells from the normalized fluorescence for each sample well, then dividing this difference by the normalized average fluorescence for the Blank control wells and multiplying the resulting value by 100. The ΔF value for each sample well represents the SMN protein abundance from test compound-treated samples. The ΔF value for each sample well is divided by the ΔF value for the vehicle control wells to calculate the fold increase in SMN protein abundance relative to the vehicle control. Table 3 provides EC1.5x concentrations for SMN protein expression that was obtained from the 7-point concentration data generated according to the above procedure for particular compounds of the present invention.
Table 4 provides the maximum fold increase of SMN protein that was obtained from the 7-point concentration data generated according to the above procedure for particular compounds of the present invention

SMILES	EC1.5x SMN protein (EC1.5x concentration for SMN protein expression) [µM]	max. fold increase (maximum fold increase of SMN protein)
CCOc1cc(N2CCNCC2)ncc1C(=O)Nc1cc(F)c2nc(C)cn2c1 [Example 70, 4-ethoxy-N-(8-fluoro-2-methylimidazo[1,2-a]pyridin-6-yl)-6-(piperazin-1-yl)nicotinamide]	0.0187	1.933
Cc1cn2cc(NC(=O)c3ccc(N4CCNCC4)nc3)cc(F)c2n1 [Example 41, N-(8-tluoro-2-methylimidazo-[1,2-a]pyridin-6-yl)-6-(piperazin-1-yl)nicotinamide dihydrochloride]	0.0508	1.7973
Cc1nc2c(F)cc(NC(=O)c3ccc(N4CCN5CCC[C@H]5C4)cc3F)cc2o1 [Example 33, (S)-2-Fluoro-N-(4-fluoro-2-methyl-benzooxazol-6-yl)-4-(S)-hexahydro-pyrrolo[1,2-a]-pyrazin-2-yl-benzamide]	0.5703	1.7541

Source: US10501482B2, “Compounds for treating spinal muscular atrophy” (Hoffmann-La Roche Inc., priority 2013, dated 2019)
